Experimental data as given in patent US6521262B2, “Solid instant-release forms of administration and process for producing the same” (Heidelberg Pharma Holding GmbH, priority 1996, dated 2003).

| viscosity of the solution (aqueous 7% solution of the active substance) | viscosity (2% aqueous solution of the active substance) [mpas*sec] | Structure (SMILES) |
| --- | --- | --- |
| 500-600 mpa*sec | – | CCCCCCCCCCCCSCC(COP(=O)([O-])OCC1OC(n2cc(C)c(=O)[nH]c2=O)CC1N=[N+]=[N-])OCCCCCCCCCC.[Na+] (centres unmarked) [Example 1 active substance, Na salt of 3′-azido-3′-deoxy-5′-thymidylic acid-mono[3-(dodecyl-thio)-2-decyloxypropyl]-ester] |
| – | 6 | CCCCCCCCCCCCSCC(COP(=O)([O-])OCC1OC(n2cc(C)c(=O)[nH]c2=O)CC1F)OCCCCCCCCCC.[Na+] (centres unmarked) [Example 3 active substance, Na salt of 3′-fluoro-3′-deoxy-5′-thymidylic acid-mono[3-(dodecyl-thio)-2-decyloxypropyl]-ester] |
